# Experimental data taken from US20080194590A1, “4-Piperazinylthieno [2,3-D] Pyrimidine Compounds as Platelet Aggregation Inhibitors” (Pfizer Inc, priority 2005, published 2008).
# Values joined by “and” are separate entries in the source; they are usually repeats but may differ in a detail not shown here. Equal values may be shown once.
# Experiments:
# [1] = target: T1, P2Y12 receptor (Homo sapiens, UniProt Q9H244); assay: Inhibition of [33P]2MeS-ADP binding to washed human platelet membranes (Assay 1); parameters: the P2Y12 receptor, which is found on the surface of platelets; tissue Interstate Blood bank, Memphis, Tenn; host or cells: human platelets from platelet rich plasma; details: for inhibition at 10 µM: highest concentration tested 10 μM; for IC50 / Ki: washed human platelet membranes
# Experimental: 1. Inhibition of [^33P]2MeS-ADP Binding to Washed Human Platelet Membranes. The ability of a test compound to bind to the P2Y12 receptor was evaluated in a platelet membrane binding assay. In this competitive binding assay, the test compound competed against a radiolabelled agonist for binding to the P2Y12 receptor, which is found on the surface of platelets. Inhibition of binding of the labeled material was measured and correlated to the amount and potency of the test compound. Data from this assay are presented in Table F. Platelet rich plasma (“PRP”) was obtained from the Interstate Blood bank, Memphis, Tenn. Platelet rich plasma was prepared from blood units collected in ACD ((prepared by (1) combining: 2.5 g sodium citrate (Sigma S-4641); 1.5 g citric acid (Sigma C-0706); and, 2.0 g dextrose (Sigma G-7528); (2) bringing pH to 4.5; and (3) adding water to bring volume to 100 mL) and using the light spin protocol; this protocol involves centrifugation at room temperature for approximately 20 minutes at speeds up to 160×g. Platelet rich plasma is supplied in units of approximately 200 ml. Each unit is distributed into four 50 mL polypropylene conical tubes for centrifugation, Blood from each donor is maintained separately.
# The 50 mL tubes were centrifuged for 15 minutes at 1100 rpm in Sorvall RT6000D (with H1000B rotor). Internal centrifuge temperature was maintained at approximately room temperature (22-24° C.). This spin pelleted cellular components remaining from the PRP preparation. The supernatant was decanted into fresh 50 mL tubes. To avoid carry over of cellular components following the room temperature centrifugation, approximately 5 mL of PRP was left in the tube and discarded. The tubes were capped and inverted 2-3 times and allowed to stand at room temperature for at least 15 minutes following inversion.
# Optionally, a Coulter Counter may be used to count platelets from the resting samples during the resting phase. Normal human platelet counts are expected to range from 200,000 to 400,000 per μL of PRP supernatant.
# The 50 mL tubes containing PRP supernatant were centrifuged for 15 minutes at 2300-2400 rpm to loosely pellet the platelets. The supernatant from this spin was decanted immediately into a clean cell culture bottle (Corning bottle) and saved in case further centrifugation was needed. The pellet of each tube was resuspended in 2-4 mL of Wash buffer (pH 6.5) (1 L prepared new daily—134 mM NaCl (Sigma S-5150); 3 mM KCl (Sigma P-9333); 1 mM CaCl2 (JT Baker 1311-01); 2 mM MgCl2 (Sigma M-2670); 5 mM glucose (EM 4074-2); 0.3 mM NaH2PO4 (Sigma S-9638)/12 mM NaHCO3 (J T Baker 3506-01); 5 mM HEPES pH 7.4 (Gibco 12379-012); 0.35% BSA (Sigma A-7906); 330 mg Heparin (bovine lung, Sigma H-4898); and 30 mL of ACD) by repeated gentle aspiration using disposable polypropylene sample pipettes.
# Wash buffer (pH 6.5) was added to each tube to bring the volume to approximately 40 mL. Each tube was incubated for at least 15 minutes at 37° C.
# The tubes were then centrifuged again for 15 minutes at 2300-2400 rpm to loosely pellet the platelets. The supernatant was decanted and discarded. The pellet was resuspended in 2-4 mL of Assay buffer (pH 7.4) (1 L volume—134 mM NaCl; 3 mM KCl; 1 mM CaCl2; 2 mM MgCl2; 5 mM glucose; 0.3 mM NaH2PO4/12 mM NaHCO3; 5 mM HEPES pH 7.4; and 0.35% BSA) by repeated aspiration using disposable polypropylene sample pipettes.
# The pooled platelet preparation was counted using a Coulter Counter. The final concentration of platelets was brought to 1×10^6 per μL using Assay buffer pH 7.4. The platelets were rested for a minimum of 45 minutes at 37° C. before use in the assay.
# In one embodiment, the compounds were tested in 96-well microtiter filterplates (Millipore Multiscreen-FB opaque plates, #MAFBNOB50). These plates were used in the assay and pre-wet with 50 μL of Assay buffer pH 7.4 then filtered through completely with a Millipore plate vacuum. […]
# [2] = target: T1, P2Y12 receptor; assay: Human P2Y12 recombinant cell membrane binding assay with 33P 2MeS-ADP (Assay 3); parameters: expressed in transfected cells; host or cells: HEK cells; details: for IC50 / Ki: HEK cell membranes expressing P2Y12, multiple lines = multiple runs; for inhibition at 10 µM / [33P]-2MeS-ADP Binding to Recombinant Human P2Y12 Membranes (Assay 3) % Inhibition: highest concentration tested 10 μM; for inhibition at 10 µM: read-out: [33P]-2MeS-ADP Binding to Recombinant Human P2Y12 Membranes (Assay 3) % Inhibition
# Experimental: 3. Human P2Y12 Recombinant Cell Membrane Binding Assay with ^33P 2MeS-ADP.
# The ability of a test compound to bind to the P2Y12 receptor was evaluated in a recombinant cell membrane binding assay. In this competitive binding assay, the test compound competed against a radiolabelled agonist for binding to the P2Y12 receptor, expressed on the cell membrane. Inhibition of binding of the labeled material was measured and correlated to the amount and potency of the test compound. Data from this assay are presented in Table F. This binding assay is a modification of the procedure in Takasaki, J. et. al, Mol. Pharmacol., 2001, Vol. 60, pg. 432.
# HEK cells were transfected with the pDONR201P2Y12 vector and cultured in MEM with GlutaMAX I, Earle's salts, 25 mM HEPES (Gibco # 42360-032) containing 10% dialyzed FBS (Gibco # 26400-044), 100 μM nonessential amino acids (Gibco # 11140-050), 1 mM sodium pyruvate (Gibco # 11360-070), 0.05% geneticin (Gibco #10131-027), 3 μg/mL blasticidin (Fluka brand from Sigma # 15205), and 0.5 μg/mL puromycin (Sigma # P-8833).
# Confluent cells were washed once with cold DPBS (Gibco # 14190-136). Fresh DPBS was added and the cells were scraped and centrifuged at 500×g for 5 minutes at 4° C. The cell pellets were resuspended in TEE buffer (25 mM Tris, 5 mM EDTA, 5 mM EGTA) containing 1 protease inhibitor cocktail tablet (Roche # 1 873 580) per 50 mL (called TEE+Complete) and can be flash frozen at this point.
# In one embodiment, frozen cell pellets were used to prepare the membranes. In that embodiment, the frozen cell pellets were thawed on ice. In another embodiment, cell pellets may be used without flash freezing before moving on to the next step.
# Cell pellets were resuspended in TEE buffer+Complete and homogenized in a glass dounce for 12 strokes. The cell suspension was centrifuged at 500×g for 5 minutes at 4° C. The supernatant was saved and centrifuged at 20,000×g for 20 minutes at 4° C. This supernatant was discarded and the cell pellet resuspended in TEE buffer+Complete and homogenized in a glass dounce for 12 strokes. This suspension was centrifuged at 20,000×g for 20 minutes at 4° C. and the supernatant discarded. The pellet was resuspended in assay buffer (50 mM Tris, 100 mM NaCl, 1 mM EDTA) containing one protease inhibitor cocktail tablet per 50 mL, and can be flash frozen as 1 mL aliquots at this point.
# Dry compounds were diluted as 10 mM DMSO stocks and tested in a seven-point, three-fold dilution series run in triplicate beginning at 10 μM, final concentration. A 1 mM DMSO intermediate stock was made in a dilution plate and from this the seven dilutions were made to 5× the final concentration in assay buffer containing 0.02% BSA.
# To a polypropylene assay plate (Costar # 3365) the following were added: a) 30 μL of assay buffer containing one protease inhibitor cocktail tablet per 50 mL; b) 30 μL of 1 nM ^33P 2MeS-ADP made in assay buffer containing 0.02% BSA and 12.5 mg/mL ascorbic acid; 30 μL of cold 1.5 μM 2MeS-ADP for the positive control wells, or assay buffer containing 0.02% BSA and 12.5 mg/mL ascorbic acid for the negative control wells, or 5× drug dilution; and 60 μL of 1 ug/well membranes.
# The plates were incubated at room temperature for 1 hour. The reaction was stopped using a cell harvester to transfer the reaction mixture onto GF/B UniFilter plates (Perkin Elmer # 6005177), and washed three times with wash buffer (50 mM Tris), filtering between each wash. The filter plates were dried for approximately 20 minutes in an oven at 50° C. Back seals were adhered to the filter plates and 25 uL of Microscint 20 scintillation fluid (Perkin Elmer # 6013621) were added. The filter plates were sealed, shaken for 30 minutes, and counted on a Top Count. Data were analyzed using a four-parameter curve fit with a fixed minimum and maximum experimentally defined as the average positive and negative controls on each plate, and with a hill slope equal to one.
# T1 sequence (Q9H244 whole entry): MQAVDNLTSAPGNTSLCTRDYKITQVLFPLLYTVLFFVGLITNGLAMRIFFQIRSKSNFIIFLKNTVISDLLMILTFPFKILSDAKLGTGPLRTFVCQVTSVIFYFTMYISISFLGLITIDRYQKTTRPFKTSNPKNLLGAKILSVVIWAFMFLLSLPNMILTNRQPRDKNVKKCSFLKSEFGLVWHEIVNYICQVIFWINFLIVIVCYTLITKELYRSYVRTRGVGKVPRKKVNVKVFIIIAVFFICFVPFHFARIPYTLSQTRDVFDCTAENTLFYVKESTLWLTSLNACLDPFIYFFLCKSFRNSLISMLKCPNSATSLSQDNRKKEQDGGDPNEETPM
inhibition at 10 µM [1] [%],IC50 [1] [nM],Ki [1] [nM],IC50 [2],Ki [2],inhibition at 10 µM [2] [%],[33P]-2MeS-ADP Binding to Recombinant Human P2Y12 Membranes (Assay 3) % Inhibition [2] [%],SMILES
–,–,–,30 nM,17 nM,94,–,"CCc1cc2c(N3CCN(C(=O)c4ccc(-c5ccccc5)cc4)CC3)nc(NCCC(=O)NC(CO)CO)nc2s1 [Example 25, N^3-{4-[4-(1,1′-Biphenyl-4-ylcarbonyl)piperazin-1-yl]-6-ethylthieno[2,3-d]pyrimidin-2-yl}-N˜1˜-[2-hydroxy-1-(hydroxymethyl)ethyl]-beta-alaninamide]"
–,–,–,44 nM and 47 nM,27 nM and 29 nM,92.3,98.44,"CCc1cc2c(N3CCN(C(=O)c4ccc(-c5ccccc5)cc4)CC3)nc(NCCN(C)C)nc2s1 [Example 28, N′-{4-[4-(1,1′-biphenyl-4-ylcarbonyl)piperazin-1-yl]-6-ethylthieno[2,3-d]pyrimidin-2-yl}-N,N-dimethylethane-1,2-diamine]"
–,–,–,96 nM,51 nM,96.5,–,"CCc1cc2c(N3CCN(C(=O)c4cccc(-c5ccccc5)c4)CC3)nc(NC(CO)CO)nc2s1 [Example 32, 2-({4-[4-(1,1′-biphenyl-3-ylcarbonyl)piperazin-1-yl]-6-ethylthieno[2,3-d]pyrimidin-2-yl}amino)propane-1,3-diol]"
–,–,–,1050 nM and 1940 nM,557 nM and 1010 nM,75.7,70.7,"CCc1cc2c(N3CCN(C(=O)CC(F)(F)F)CC3)nc(NC[C@@H](O)CO)nc2s1 [Example 36, (2R)-3-({6-Ethyl-4-[4-(3,3,3-trifluoropropanoyl)piperazin-1-yl]thieno[2,3-d]pyrimidin-2-yl}amino)propane-1,2-diol]"

# More lines, now with the values behind:
SMILES,inhibition at 10 µM [1] [%],IC50 [1] [nM],Ki [1] [nM],IC50 [2],Ki [2],inhibition at 10 µM [2] [%],[33P]-2MeS-ADP Binding to Recombinant Human P2Y12 Membranes (Assay 3) % Inhibition [2] [%]
"CCc1cc2c(N3CCN(C(=O)Cc4ccccc4)CC3)nc(NCCCc3ccccc3)nc2s1 [Example 7, 6-Ethyl-4-[4-(phenylacetyl)piperazin-1-yl]-N-(3-phenylpropyl)thieno[2,3-d]pyrimidin-2-amine]",37.4,> 10000,–,–,–,–,–
"CCc1cc2c(N3CCN(C(=O)Cc4ccccc4)CC3)nc(NCc3ccco3)nc2s1 [Example 8, 6-Ethyl-N-(2-furylmethyl)-4-[4-(phenylacetyl)piperazin-1-yl]thieno[2,3-d]pyrimidin-2-amine]",42.2,9850,9320,–,–,–,–
"CCc1cc2c(N3CCN(C(=O)Cc4ccccc4)CC3)nc(NCCCO)nc2s1 [Example 9, 3-({6-Ethyl-4-[4-(phenylacetyl)piperazin-1-yl]thieno[2,3-d]pyrimidin-2-yl}amino)propan-1-ol]",75,3400,3210,–,–,–,–
"CCc1cc2c(N3CCN(C(=O)Cc4ccccc4)CC3)nc(NC3CCCCC3)nc2s1 [Example 10, N-Cyclohexyl-6-ethyl-4-[4-(phenylacetyl)piperazin-1-yl]thieno[2,3-d]pyrimidin-2-amine]",37.3,> 10000,–,–,–,–,–
"CCc1cc2c(N3CCN(C(=O)Cc4ccccc4)CC3)nc(NC3CCCC3)nc2s1 [Example 12, N-Cyclopentyl-6-ethyl-4-[4-(phenylacetyl)piperazin-1-yl]thieno[2,3-d]pyrimidin-2-amine]",43.6,> 10000,–,–,–,–,–
"CCc1cc2c(N3CCN(C(=O)Cc4ccccc4)CC3)nc(NCc3ccc(F)cc3)nc2s1 [Example 13, 6-Ethyl-N-(4-fluorobenzyl)-4-[4-(phenylacetyl)piperazin-1-yl]thieno[2,3-d]pyrimidin-2-amine]",45.6,> 10000,–,–,–,–,–
"CCOC(CCNc1nc(N2CCN(C(=O)c3ccc(-c4ccccc4)cc3)CC2)c2cc(CC)sc2n1)OCC [Example 22, 4-[4-(1,1′-Biphenyl-4-ylcarbonyl)piperazin-1-yl]-N-(3,3-diethoxypropyl)-6-ethylthieno[2,3-d]pyrimidin-2-amine]",–,–,–,138 nM,81 nM,86,–
"CCc1cc2c(N3CCN(C(=O)c4ccc(-c5ccccc5)cc4)CC3)nc(NCCC(=O)O)nc2s1 [Example 24, N-{4-[4-(1,1′-Biphenyl-4-ylcarbonyl)piperazin-1-yl]-6-ethylthieno[2,3-d]pyrimidin-2-yl}-beta-alanine]",–,–,–,13.2 nM,8 nM,85,–
